This passage reports half-life, MIC and solubility results from US12679835B2, “Benzothiazinone derivative substituted with trifluoromethyl at 6-position, and preparation method therefor and use thereof” (SOOCHOW UNIVERSITY, priority 2021, dated 2026).

One data set can be described thus: in vitro. The note with it: human, microsomes, pH 7.4.
Data set [1] deals with Mycobacterium tuberculosis (H37 Rv, standard tuberculosis strain). Nature of the data set: Anti-Mycobacterium tuberculosis activity, microwell Alamar Blue fluorometric method (MIC). It is filed as cell-based. The note with it: Mycobacterium tuberculosis H37Rv, 37° C., 8 days + 2 days, read-out: MIC (minimal inhibitory concentration).
A further data set can be described thus: physchem. To be noted: pH 7.4, aqueous buffer, kinetic from dmso stock.
Another data set concerns Tuberculosis. The note with it: background statement, existing clinical first-line drug; cited from earlier work.

Structures are written as SMILES. In brackets after ≈: the same amount, converted by molar mass.

One may read the half-life as how long it takes for the measured level to halve. What is called solubility is the concentration that dissolves in the medium under given conditions. A lower solubility goes with little dissolved substance.

With `CN(Cc1nnc(-c2ccccc2)o1)c1nc(=O)c2cc(S(C)(=O)=O)cc([N+](=O)[O-])c2s1` [Control 1], the half-life at 1 μM in “in vitro” came to 45.9 min. Further, the MIC in data set [1] came to 0.014 µg/mL.

The compound `CN(Cc1cn(-c2ccccc2)nn1)c1nc(=O)c2cc(S(C)(=O)=O)cc([N+](=O)[O-])c2s1` [Control 2] returned a half-life at 1 μM in “in vitro” of 53.7 min. Besides, the MIC in data set [1] was 0.022 µg/mL.

`CN(Cc1cn(-c2ccc(F)cc2)nn1)c1nc(=O)c2cc(S(C)(=O)=O)cc([N+](=O)[O-])c2s1` [Control 3] yielded a half-life at 1 μM in “in vitro” of 27.6 min. For the same compound, the MIC in data set [1] was 0.015 µg/mL.

For the compound `CN(Cc1nnc(-c2ccc(F)cc2)s1)c1nc(=O)c2cc(S(C)(=O)=O)cc([N+](=O)[O-])c2s1` [Control 4], the half-life at 1 μM in “in vitro” amounted to 13.2 min. Besides, the MIC in data set [1] was 0.024 µg/mL.

Compound `CN(Cc1coc(-c2ccccc2)n1)c1nc(=O)c2cc(S(C)(=O)=O)cc([N+](=O)[O-])c2s1` [Control 5] gave a half-life at 1 μM in the data set “in vitro” of 21 min. The MIC in data set [1] came to 0.015 µg/mL.

Regarding `CN(Cc1nnc(-c2ccccc2)o1)c1nc(=O)c2cc(C(F)(F)F)cc([N+](=O)[O-])c2s1` [Example 1, 2-(methyl ((5-phenyl-1,3,4-oxadiazol-2-yl)methyl)amino)-8-nitro-6-(trifluoromethyl)-4H-benzo [e] [1,3] Thiazin-4-ketone], the half-life at 1 μM in the data set “in vitro” stood at 68.2 min. Moreover, the MIC in data set [1] turned out to be 0.003 µg/mL. The solubility at 4 h in “physchem” is 0.15 µg/mL (≈ 0.324 µM).

For `CN(Cc1cn(-c2ccccc2)nn1)c1nc(=O)c2cc(C(F)(F)F)cc([N+](=O)[O-])c2s1` [Example 2, 2-(1-phenyl ((1-1H-1,2,3-triazole-4-yl)methyl) (methyl)amino)-8-nitro-6-(trifluoromethyl)-4H-benzo [e] [1,3] Thiazin-4-ketone], in “in vitro”, the half-life at 1 μM is 100 min. Also, in data set [1], the MIC was found to be 0.004 µg/mL. Also, in “physchem”, the concentration in solution (solubility at 4 h) came to 0.13 µg/mL (≈ 0.281 µM).

`CN(Cc1cn(-c2ccc(F)cc2)nn1)c1nc(=O)c2cc(C(F)(F)F)cc([N+](=O)[O-])c2s1` [Example 3] registered a half-life at 1 μM in the data set “in vitro” of 116 min. Further, in data set [1], the MIC worked out at 0.004 µg/mL. In the data set “physchem”, this compound gave a solubility at 4 h of 0.12 µg/mL (≈ 0.25 µM).

In the case of `CN(Cc1nnc(-c2ccc(F)cc2)s1)c1nc(=O)c2cc(C(F)(F)F)cc([N+](=O)[O-])c2s1` [Example 4], the half-life at 1 μM in the data set “in vitro” was determined as 34.3 min. For the same compound, the MIC in data set [1] worked out at 0.016 µg/mL.

The compound `CN(Cc1coc(-c2ccccc2)n1)c1nc(=O)c2cc(C(F)(F)F)cc([N+](=O)[O-])c2s1` [Example 5, 2-(methyl((2-phenyloxazole-4-yl)methyl)amino)-8-nitro-6-(trifluoromethyl)-4H-benzo [e] [1,3] Thiazin-4-ketone] returned a half-life at 1 μM in the data set “in vitro” of 33.6 min. Moreover, the MIC in data set [1] was 0.003 µg/mL. Besides, the solubility at 4 h in the data set “physchem” was 0.11 µg/mL (≈ 0.238 µM).

`O=c1nc(N2CCN(CC3CCCCC3)CC2)sc2c([N+](=O)[O-])cc(C(F)(F)F)cc12` [PBTZ169] returned a half-life at 1 μM in the data set “in vitro” of 38 min. For the same compound, the MIC in data set [1] came out at 0.00183 µg/mL. Moreover, the solubility at 4 h in the data set “physchem” was < 0.01 µg/mL.

Consider `NNC(=O)c1ccncc1` [isoniazid INH, isoniazid], for which the MIC was 0.028 µg/mL in data set [1] and 0.5 µM (≈ 0.0686 µg/mL) with Tuberculosis.
